The IC50 is the concentration that gives 50% inhibition. Usually GI50 stands for the concentration that inhibits growth by half. As usually defined, the EC50 is the concentration giving half of the maximal effect. As a reminder, the CC50 is the concentration at which the toxic effect on the cells reaches its halfway point. A higher CC50 goes with better tolerance by the cells.

Like-named read-outs stand apart in the source and are kept apart here.

Data set [1] addresses α1β1 Na+/K+ ATPase (Homo sapiens, UniProt P05023). Briefly: Na+/K+ ATPase pump binding, α1β1 isoform (radioactive displacement assay). As to the method: (§1) α1/2/3-Na^+/K^+ ATPase pump binding data was assessed for compounds of Table 1.
(§2) Further, from the results, a strong correlation between cancer cell cytotoxicity and α1/3-Na^+/K^+ ATPase pump binding selectivity was observed (see: α-L-amiceto-mono-, di- and tri-saccharides; Scheme 1). In addition, it was observed that mono-saccharides have improved activity and α1/2/3-isoform selectivity. […] The Na^+/K^+ ATPase binding data also correlates with the cytotoxicity data, which can be seen in the binding data of compounds 1.5-1.7 to all three isomers (α1β1/α2β1/α3β1), which decreases proportionally the MTT data (Table 1).

The target of data set [2] is α2β1 Na+/K+ ATPase (Homo sapiens, UniProt P50993). Nature of the data set: Na+/K+ ATPase pump binding, α2β1 isoform (radioactive displacement assay). On the procedure: as §1, §2
The target in data set [3] is α3β1 Na+/K+ ATPase (Homo sapiens, UniProt P13637). Briefly: Na+/K+ ATPase pump binding, α3β1 isoform (radioactive displacement assay). As to the method:
as §1, §2

Data set [4] has as its system NCI-H460 cells. Briefly: cells. In kind it is cell-based, Human. The conditions noted are these: Homo sapiens. As to the method:
(§3) Human non-small cell lung cancer cells (NCI-H460) were purchased from the American Type Culture Collection (Manassas, Va.). NCI-H460 cells were cultured in RPMI 1640 medium supplemented with 10% bovine fetal serum (FBS), 2 mM L-glutamine and 100-units/ml penicillin/streptomycin. All experiments with NCI-H460 cells were performed in medium enriched with 1% FBS serum, 2 mM L-glutamine and 100-units/ml penicillin/streptomycin. 1% FBS was used due to existing concerns about digitoxin binding to serum proteins.
Cells were seeded overnight in 96 well plates at a concentration of 1×10^4 cells/well, and then treated for 48 h with a log10 scale dilution series of the glycosylated CS compounds (e.g., digitoxin or D6-MA) dissolved in sterile filtered DMSO. Subsequently, 10 μl of 5 mg/ml MTT reagent was added to each well and then incubated for 4 h at 37° C. Isopropanol acidified with 0.04 N HCl was used to dissolve converted dye. Absorbance at 570 nm was measured using an Automated Microplate Reader ELx800 (BioTek, Winooski, Vt.). Each experiment was conducted 4 times with 4 replicate wells per concentration.
(§4) All results are presented as mean±standard deviation. For cell viability, ATPase activity and apoptosis assays, dose-response curves and concentrations that caused 50% effect (i.e. IC50) were calculated for the prepared compounds listed in Tables 1-3 in all the cell lines tested using non-linear regression analysis in GraphPad Prism 5.0 (San Diego, Calif.). Two-way analysis of variance (ANOVA) and unpaired two-tailed Student's t-test with α=0.05 were performed to compare the effect of compounds and administered dose on cell viability, apoptosis and quantified protein expression data. Post-hoc Tukey-Kramer HSD tests were conducted on significant ANOVA results. Results were considered significant when p≦0.05.

Data set [5] has as its system NCI-H460 cells. Briefly: Apoptosis assay (Hoechst 33342). Type of data set: cell-based. The conditions noted are these: Homo sapiens, read-out: Anticancer Apoptosis GI50. On the procedure:
as §3
Cells were seeded overnight in 12 or 24 well plates at a concentration of 1×10^5 cell/ml and subsequently treated with different concentrations of the glycosylated CS compounds for 24 h. After treatment, cells were incubated with […] of Hoechst 33342 for 30 min and analyzed for apoptosis by scoring the percentage of cells having intensely condensed chromatin and/or fragmented nuclei using fluorescence microscopy (Leica Microsystems, Bannockburn, Ill.). Approximately 1,000 nuclei from ten random fields were analyzed for each sample. The apoptotic index was calculated as the percentage of cells with apoptotic nuclei over total number of cells.
as §4

The subject of data set [6] is HCMV. Briefly: Anti-CMV activity assay, inhibition of HCMV replication in infected HFFs. Type of data set: cell-based, human Cytomegalovirus (HCMV). To be noted: for SI (selectivity index, CC50/EC50): CC50 noninfected HFFs / EC50 infected HFFs. On the procedure: It has been observed that the infection of human foreskin fibroblasts (HFF) cells with HCMV causes an up regulation of the α3-isoform of the Na^+/K^+-Pump. Therefore the inhibition of HCMV replication by the compounds described herein was tested using procedure described by Cai, H. et al., in Med. Chem. Lett. 2014, 5, 395-399, which is incorporated by reference in its entirety. Generally, inhibition of Towne HCMV: pp28-luciferase activity was measured in cell lysates of HCMV-infected HFFs collected at 72 h post infection (hpi). Virus DNA yield in supernatants of HCMV-infected cells collected at 96 hpi was measured by real-time PCR. Plaque reduction assay performed at 8 days postinfection. Data represent mean values (±SD) of triplicate determinations from three independent experiments.
Inhibition of TB40 HCMV: HFFs were infected with HCMV-TB40 strain at MOI of 1 pfu/cell and treated with compounds listed in Tables 1-3 for 3 days.
(§5) The glycosylated cardiotonic steroid compounds were tested for their anti-cytomegalovirus (CMV) activity. Specifically, the compounds were tested for the ability to inhibit HCMV replication. For each compound, the anti-HCMV activity in infected HFFs was expressed as EC50, whereas cytotoxicity in noninfected HFFs was expressed as CC50. Selectivity index (SI), defined as CC50/EC50, was calculated for each compound.

Data set [7] can be described thus: Cytotoxicity in noninfected HFFs (MTT). In kind it is cell-based, human. To be noted: human. On the procedure: as §5
Data set [8] deals with noninfected HFFs. Briefly: Cytotoxicity in noninfected HFFs (MTT). In kind it is cell-based, human. As to the method:
as §5

Where [9] appears, read: NCI-H460, 48 h, read-out: Anticancer MTT IC50.
Where [10] appears, read: anti-HCMV activity in infected HFFs, read-out: EC50.

Take `CC1O[C@@H](O[C@H]2CCC3(C)C(CC[C@@H]4C3CCC3(C)[C@@H](C5=CC(=O)OC5)CC[C@]43O)C2)C(O)C(O)[C@H]1O` (stereo partly drawn) [Compound 1.2, digitoxigenin α-L-rhamnopyranoside]: the Kd in data set [1] was 27 nM; in data set [2], 23 nM; in data set [3], 19 nM. Moreover, in data set [4] (setting [9]), the IC50 was determined as 47 nM. Also, in data set [5] (NCI-H460, 24 h), the 50% growth inhibitory concentration (GI50) worked out at 2 nM. For the same molecule, the “SI (selectivity index, CC50/EC50)” value in data set [6] is recorded as 173; in data set [6] (listed as α-L-Rhamnose (1.2)) it was 139.25. The molecule further gave a half-maximal effective concentration (EC50) in data set [6] (Human betaherpesvirus 5) of 4.77 ± 0.23 nM. In data set [7], this molecule showed a CC50 of 664 ± 185 nM.
Turning to `CC1OC(OC2C(C)OC(OC3C(C)OC(OC4CCC5(C)C(CCC6C5CCC5(C)C(C7=CC(=O)OC7)CCC65O)C4)C(O)C3O)C(O)C2O)C(O)C(O)C1O` (centres unmarked) [Compound 1.4], the results for the Kd in data set [1], in data set [2] and in data set [3] were 393 nM, 164 nM and 345 nM, respectively. Moreover, the IC50 in data set [4] (setting [9]) stood at 1350 nM.
Consider `CC1O[C@@H](O[C@H]2CCC3(C)C(CC[C@@H]4C3CCC3(C)[C@@H](C5=CC(=O)OC5)CC[C@]43O)C2)CC[C@H]1O` (stereo partly drawn) [Compound 1.5, digitoxigenin α-L-amecitopyranoside], for which the results for the Kd in data set [1], in data set [2] and in data set [3] were 56 nM, 38 nM and 26 nM, respectively. Also, the IC50 in data set [4] (setting [9]) was found to be 48 nM. The concentration for 50% growth inhibition (GI50) in data set [5] (NCI-H460, 24 h) turned out to be 3 nM. Further, the “SI (selectivity index, CC50/EC50)” value in data set [6] is on record as 139; in data set [6] (listed as α-L-Amicetose (1.5)) it was 173.61. In addition, a half-maximal response in data set [6] (Human betaherpesvirus 5) (EC50) required 3.77 ± 0.08 nM. Also, in data set [7], it took 655 ± 177 nM to reach half-maximal cytotoxicity (CC50).
Turning to `CC1OC(OC2CCC(OC3CCC4(C)C(CCC5C4CCC4(C)C(C6=CC(=O)OC6)CCC54O)C3)OC2C)CCC1O` (centres unmarked) [Compound 1.6], the Kd in data set [1] turned out to be 223 nM; in data set [2], 156 nM; in data set [3], 186 nM. Moreover, the IC50 in data set [4] (setting [9]) was determined as 510 nM.
With `CC1OC(OC2CCC(OC3CCC(OC4CCC5(C)C(CCC6C5CCC5(C)C(C7=CC(=O)OC7)CCC65O)C4)OC3C)OC2C)CCC1O` (centres unmarked) [Compound 1.7], the Kd amounted to 670 nM in data set [1], 149 nM in data set [2] and 736 nM in data set [3]. The IC50 in data set [4] (setting [9]) was found to be 3960 nM.
On to `C[C@H]1O[C@@H](O[C@H]2[C@@H](O)C[C@H](O[C@H]3[C@@H](O)C[C@H](O[C@H]4CC[C@@]5(C)[C@H](CC[C@@H]6[C@@H]5CC[C@]5(C)[C@@H](C7=CC(=O)OC7)CC[C@]65O)C4)O[C@@H]3C)O[C@@H]2C)C[C@H](O)[C@@H]1O` [Digitoxin, reference compound], for which the Kd worked out at 80 nM in data set [1] (first KD column of Table 4, read-out: Na+/K+ATPase inhibition KD, α1β1); 38 nM in data set [2] (second KD column of Table 4, read-out: Na+/K+ATPase inhibition KD, α2β1); 36 nM in data set [3] (third KD column of Table 4, head printed α1β1 a second time, read-out: Na+/K+ATPase inhibition KD, α1β1). For the same molecule, the IC50 came out at 357 nM in data set [4] (NCI-H460, Table 4, 48 h treatment, unit inferred, read-out: Anticancer MTT IC50) and 157 nM in data set [4] (NCI-H460, Table 5, H460 cells, compounds of Table 2, read-out: IC50). Besides, the concentration for 50% growth inhibition (GI50) in data set [5] (NCI-H460, Table 4, 24 h treatment, unit inferred) turned out to be 11 nM. The figures for the “SI (selectivity index, CC50/EC50)” value in data set [6] and in data set [6] (listed as digitoxin) were 120.46 and 120, respectively. In data set [6] (Human betaherpesvirus 5), this molecule showed a half-maximal effective concentration (EC50) of 23.3 ± 0.67 nM. Also, it took 2810 ± 668 nM to reach half-maximal cytotoxicity in data set [7] (CC50).
With α-D-Amicetose, the 50% effective concentration (EC50) in data set [6] (setting [10]) stood at 37.5 ± 0.52 nM. For the same molecule, it took 1110 ± 273 nM to reach half-maximal cytotoxicity in data set [8] (CC50).
For α-D-Rhamnose the same measures were 26.6 ± 0.88 nM and 2270 ± 551 nM.

The values above are taken from patent publication US20160176914A1, “GLYCOSYLATED CARDIOTONIC STEROIDS” (priority 2013, published 2016).
